For data set [1], the system named is Plasma. Put plainly: Free plasma concentration in ovariectomized rhesus monkey at 5 mg/kg/day, po. Details: route oral. To be noted: in vivo. It counts as ADME, organism-based, Macaca mulatta.
For data set [2], the system named is Plasma. Put plainly: Average drug concentration in ovariectomized rhesus monkey plasma at 5 mg/kg/day, po. The format is ADME, organism-based, Macaca mulatta. Also noted: route oral. As to conditions: in vivo.
The nature of data set [3]: AUC (0 to last) in in ovariectomized rhesus monkey at 5 mg/kg/day, po. The format is ADME, organism-based, Macaca mulatta. Also noted: dose 5 mg/kg/day, time 0 - last, route oral. To be noted: female, plasma.
The next data set concerns Rhesus monkey. Put plainly: Induction of early menstruation in ovariectomized rhesus monkey menses induction model at 5 mg/kg/day, po. The format is functional, organism-based. As to conditions: Macaca mulatta.
Data set [4] can be described thus: Half life in rat at 2 mg/kg, po. It counts as ADME, organism-based. Also noted: dose 2 mg/kg, route oral. To be noted: in vivo.
A short description of data set [5]: Cmax in rat at 2 mg/kg, po. The format is ADME, organism-based. Details: dose 2 mg/kg, route oral. As to conditions: in vivo.
Data set [6] is described as follows: AUC (0 to infinity) in rat at 2 mg/kg, iv. It counts as ADME, organism-based. Also noted: time infinity, dose 2 mg/kg, route intravenous. To be noted: plasma.
The nature of data set [7]: Volume of distribution at steady state in rat at 2 mg/kg, iv. To be noted: in vivo, read-out: Vdss. It counts as ADME, organism-based. Details: dose 2 mg/kg, route intravenous.
A short description of data set [8]: Oral bioavailability in cynomolgus monkey at 2 mg/kg. The format is ADME, organism-based, Macaca fascicularis. To be noted: in vivo.
Data set [9] can be described thus: AUC (0 to infinity) in cynomolgus monkey at 2 mg/kg, po. To be noted: plasma. It counts as ADME, organism-based, Macaca fascicularis. Also noted: time infinity, dose 2 mg/kg, route oral.
The nature of data set [10]: Half life in cynomolgus monkey at 2 mg/kg, po. It counts as ADME, organism-based, Macaca fascicularis. Details: dose 2 mg/kg, route oral. As to conditions: in vivo.
Data set [11] in a line: Volume of distribution at steady state in cynomolgus monkey at 2 mg/kg, iv. As to conditions: in vivo, read-out: Vdss. It counts as ADME, organism-based, Macaca fascicularis. Details: dose 2 mg/kg, route intravenous.
Data set [12] in a line: Clearance in cynomolgus monkey at 2 mg/kg, iv. The format is ADME, organism-based, Macaca fascicularis. Also noted: dose 2 mg/kg, route intravenous. As to conditions: in vivo.
Data set [13] can be described thus: Fraction unbound in rat plasma. The format is ADME, cell-free.
Data set [14] deals with T1, Mineralocorticoid receptor (Homo sapiens) (UniProt P08235).
T1 sequence (whole entry): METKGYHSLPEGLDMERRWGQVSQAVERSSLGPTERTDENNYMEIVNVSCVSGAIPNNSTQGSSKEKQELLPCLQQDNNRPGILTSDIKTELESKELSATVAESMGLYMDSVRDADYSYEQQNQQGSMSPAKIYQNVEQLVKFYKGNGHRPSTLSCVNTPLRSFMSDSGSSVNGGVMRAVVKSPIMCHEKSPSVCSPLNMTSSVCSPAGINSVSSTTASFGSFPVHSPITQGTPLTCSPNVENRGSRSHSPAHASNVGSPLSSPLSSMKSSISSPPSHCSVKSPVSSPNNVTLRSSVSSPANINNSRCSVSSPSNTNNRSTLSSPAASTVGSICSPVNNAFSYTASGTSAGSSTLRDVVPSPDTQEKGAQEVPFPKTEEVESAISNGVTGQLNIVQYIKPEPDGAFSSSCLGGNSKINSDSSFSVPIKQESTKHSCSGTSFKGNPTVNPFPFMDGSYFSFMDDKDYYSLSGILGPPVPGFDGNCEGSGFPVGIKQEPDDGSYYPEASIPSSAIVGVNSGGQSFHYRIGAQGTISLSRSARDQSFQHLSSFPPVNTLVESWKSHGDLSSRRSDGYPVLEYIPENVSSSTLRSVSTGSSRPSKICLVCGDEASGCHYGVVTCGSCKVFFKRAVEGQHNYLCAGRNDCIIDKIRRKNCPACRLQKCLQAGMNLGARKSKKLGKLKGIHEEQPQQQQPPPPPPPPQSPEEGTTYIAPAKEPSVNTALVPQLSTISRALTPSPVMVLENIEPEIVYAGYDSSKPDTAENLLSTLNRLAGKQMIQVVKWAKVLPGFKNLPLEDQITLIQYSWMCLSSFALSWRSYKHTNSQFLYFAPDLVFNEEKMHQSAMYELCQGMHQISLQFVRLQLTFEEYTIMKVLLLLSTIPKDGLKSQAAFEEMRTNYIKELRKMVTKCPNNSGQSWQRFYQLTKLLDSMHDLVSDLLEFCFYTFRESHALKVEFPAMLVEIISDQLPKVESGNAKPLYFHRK
Put plainly: Antagonist activity at mineralocorticoid receptor at 1 uM by cellular reporter gene assay. It counts as functional. Also noted: scale not given: the % may be the effect or the level left. On the technique in general: Reporter assays use an easily measured gene product as a stand-in for the process of interest.

Data set [15] addresses T2, Estrogen receptor (Homo sapiens) (UniProt P03372).
T2 sequence (whole entry): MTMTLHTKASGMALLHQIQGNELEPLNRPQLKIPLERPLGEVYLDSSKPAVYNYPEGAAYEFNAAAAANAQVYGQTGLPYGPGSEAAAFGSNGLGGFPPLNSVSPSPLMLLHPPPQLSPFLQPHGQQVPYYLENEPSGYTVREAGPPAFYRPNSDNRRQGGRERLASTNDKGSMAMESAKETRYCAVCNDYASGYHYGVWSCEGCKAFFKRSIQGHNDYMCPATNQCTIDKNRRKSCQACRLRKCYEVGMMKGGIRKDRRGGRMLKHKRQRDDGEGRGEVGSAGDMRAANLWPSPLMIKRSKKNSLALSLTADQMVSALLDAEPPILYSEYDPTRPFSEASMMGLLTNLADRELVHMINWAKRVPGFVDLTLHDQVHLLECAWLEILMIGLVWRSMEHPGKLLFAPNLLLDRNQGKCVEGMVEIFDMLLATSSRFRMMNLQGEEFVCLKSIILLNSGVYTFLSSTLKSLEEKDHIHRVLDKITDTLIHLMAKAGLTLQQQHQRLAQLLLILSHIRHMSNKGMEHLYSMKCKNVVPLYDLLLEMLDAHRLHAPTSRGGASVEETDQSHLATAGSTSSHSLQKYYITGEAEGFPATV
Put plainly: Antagonist activity at estrogen receptor by cellular reporter gene assay. It counts as functional.

Data set [16] addresses T1, Mineralocorticoid receptor (Homo sapiens). Put plainly: Agonist activity at mineralocorticoid receptor by cellular reporter gene assay. It counts as functional.
The target in the next data set is T3, Glucocorticoid receptor (Homo sapiens, UniProt P04150).
T3 sequence (P04150 whole entry): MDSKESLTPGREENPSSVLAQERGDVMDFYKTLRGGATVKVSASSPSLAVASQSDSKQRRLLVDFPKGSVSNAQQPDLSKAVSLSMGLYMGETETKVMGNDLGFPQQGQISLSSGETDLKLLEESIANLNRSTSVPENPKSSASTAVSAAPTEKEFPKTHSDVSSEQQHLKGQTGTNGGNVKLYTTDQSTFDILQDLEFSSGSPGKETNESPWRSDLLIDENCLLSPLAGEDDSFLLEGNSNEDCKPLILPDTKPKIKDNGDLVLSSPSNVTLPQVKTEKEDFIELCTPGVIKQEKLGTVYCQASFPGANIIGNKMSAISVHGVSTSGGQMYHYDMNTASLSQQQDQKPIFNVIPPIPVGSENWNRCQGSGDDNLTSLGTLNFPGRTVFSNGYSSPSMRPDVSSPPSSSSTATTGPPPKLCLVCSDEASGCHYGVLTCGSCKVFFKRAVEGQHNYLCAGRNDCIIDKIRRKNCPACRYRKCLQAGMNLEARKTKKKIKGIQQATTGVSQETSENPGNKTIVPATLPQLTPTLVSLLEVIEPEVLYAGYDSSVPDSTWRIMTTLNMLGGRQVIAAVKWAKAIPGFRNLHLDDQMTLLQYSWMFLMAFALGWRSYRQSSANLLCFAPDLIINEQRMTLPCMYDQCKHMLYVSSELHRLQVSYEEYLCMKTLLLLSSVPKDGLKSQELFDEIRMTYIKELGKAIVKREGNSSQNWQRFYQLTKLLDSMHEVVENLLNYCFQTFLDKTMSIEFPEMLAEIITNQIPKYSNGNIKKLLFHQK
Put plainly: Agonist activity at glucocorticoid receptor by cellular reporter gene assay.

The nature of data set [17]: Half life in cynomolgus monkey at 2 mg/kg, iv. The format is ADME, organism-based, Macaca fascicularis. To be noted: in vivo. Details: dose 2 mg/kg, route intravenous.
Data set [18] in a line: Cmax in cynomolgus monkey at 2 mg/kg, po. It counts as ADME, organism-based, Macaca fascicularis. Also noted: dose 2 mg/kg, route oral. As to conditions: in vivo.

SMILES strings stand for the structures. Active and inactive are the calls of the source.

One may read the AUC(0-t) as the area under the concentration-time curve up to a stated or last time point. As a reminder, the half-life is the time needed for the level to fall by half in the phase considered. Usually Cmax stands for the peak of the concentration-time curve. For orientation: AUC(0-inf) means total exposure, with the tail of the curve extrapolated. In general, bioavailability refers to the share of a dose that reaches the circulation, judged against a reference dose that is usually intravenous. By clearance is commonly meant a measure of how efficiently the substance is removed, as volume per time. One may read the fraction unbound as free concentration divided by total concentration. Broadly, the IC50 is the midpoint of a concentration-inhibition curve. Regarding `CCS(=O)(=O)Nc1cc(F)c(-c2ccc(C#N)n2C)c(F)c1`, the “Cp(f)” value with Plasma [1] came out at 11 nM. In addition, the Cave with Plasma [2] was determined as 3600 nM. Besides, the AUC(0-t) in data set [3] was found to be 28500 ng·h/mL. In the data set with Rhesus monkey, the result was Active. Besides, the half-life in data set [4] was 2.3 h; in [10] it was 2.7 h; in data set [17], 2.8 h. Moreover, the highest concentration (Cmax) worked out at 2800 ng/mL in [5] and 5100 ng/mL in data set [18]. Further, the area under the curve AUC(0-inf) in data set [6] was 13000 ng·h/mL; in data set [9], 13700 ng·h/mL. Also, the results for the Vd in data set [7] and in [11] were 0.5 L/kg and 0.3 L/kg, respectively. For the same compound, the bioavailability in data set [8] was 69%. The same compound gave a clearance in data set [12] of 2 mL/min/kg. In [13], the free fraction (fraction unbound) was found to be 0.019. The Activity in [14] was 60%. The outcome in data set [15] and in [16] was inactive. The IC50 on Glucocorticoid receptor is above 10 µM.

`COC[C@]1(OC)CC[C@H]2[C@@H]3CCC4=CC(=O)CCC4=C3[C@@H](c3ccc(/C=N/O)cc3)C[C@@]21C` [ASOPRISNIL]: the outcome in [16] was inactive.
